Laboratory results: patent EP1333824B1, “TREATMENT OF SEXUAL DYSFUNCTION WITH BOMBESIN RECEPTOR ANTAGONISTS” (Warner-Lambert Company LLC, priority 2000, dated 2002)

Tests used:
[1] = system: Ovariectomised adult female Sprague Dawley rats; assay: Female rat sexual receptivity test (lordosis quotient, LQ); assay type: in vivo; conditions: for lordosis quotient (LQ): quinelorane 6.25µg/kg s.c. 90min
Procedure: (§1) Ovariectomised adult female Sprague Dawley rats (180-200g, from Charles River) were housed in groups of 6 in a reversed lighting system of 12h light:dark (lights off 7.00-19.00h). Two weeks after ovariectomy they were used for sexual activity tests. The experiments started at least 5h into the dark period.
It was administered intraperitoneally (i.p.) at a dose of 10mg/kg, in a dosing volume of 1ml/kg. […] Forty eight hours before testing, ovariectomised female rats (as described above), were primed with 5µg oestradiol benzoate dissolved in corn oil and injected subcutaneously. […] The females were placed with a series of vigorous male rats and subjected to 10 mounts.
The lordotic response of the animal was recorded and expressed as a percentage of the mounts (i.e. lordosis quotient, LQ), as previously described. Animals showing LQ<20 were considered non-receptive and were included in the study. Each rat was tested prior to administration of the compound and then tested similarly post-injection.
The above compound was dissolved in PEG200 vehicle and administered orally. […] Both compounds were administered in a 1ml/kg volume.
Forty eight hours before tests, the animals were primed with 5µg oestradiol benzoate (Sigma Chemical. Co. Ltd., UK) dissolved in corn oil and injected subcutaneously. The females were placed with a series of vigorous male rats and subjected to 10 mounts. The lordotic response of the animal was recorded and expressed as a percentage of the mounts (i.e. lordosis quotient, LQ). […] Animals showing higher LQ were not included in the study. Each rat was tested prior to administration of the compound and then tested similarly at 1h and 90min post-injection of the above compound or quinelorane respectively.

[2] = system: Ovariectomised adult female Sprague Dawley rats; assay: Female rat sexual proceptivity test (time investigating male vs female stimulus); assay type: in vivo
[3] = system: Sprague Dawley male rats; assay: Sexual behaviour of normal (sexually vigorous) male rats; assay type: in vivo, rat; conditions: Compound (1) 15mg/kg or Fluoxetine 20mg/kg i.p. 1h before tests, vs vehicle
Procedure: Sprague Dawley male rats (Charles River, UK) were kept, 4 rats per cage, in a reversed lighting regime (12:12 hours, lights off at 5.00 h), with free access to food and water. The rats were pre-selected by being presented with a receptive female at 4 days intervals, i.e. every third day (having 2 clear days between presentations) until completing 6-7 days of baseline determination. The animals showing consistently vigorous behaviour (ejaculatory latencies <300s) were chosen for further experiments (n=24). Animals were randomised into three groups. All animals received all three treatments following a latin-square design. Treatments were administered once a week, with a baseline test in between treatments (4 days intervals between baseline and test day). […] All treatments were administered i.p. in a 1ml/kg volume, 1h before tests.
For all the sexual behaviour tests, the males were placed in an observation arena (50-60 cm diameter), starting 5 hours into the dark cycle and observed under red illumination. Three to 4 minutes after placing the male in the arena, a receptive female (ovariectomised, bearing a 7 mm Silastic implant of oestradiol benzoate) was introduced to the arena and the following parameters noted: Mount Latency: time (in seconds) taken between introduction of female and first mount. A maximum time of 15 minutes (900 seconds) was allowed, and the test terminated if no mounts were recorded within that time (Figure 11), Intromission Latency: time (in seconds) taken between introduction of female and first intromission (Figure 12), Number of Mounts: to reach ejaculation. When ejaculation was not reached, the number of mounts was not analyzed, Number of Intromissions: to reach ejaculation. When ejaculation was not reached, the number of intromissions was not analyzed (Figure 13 is number of mounts + intromissions), Ejaculation Latency: time (in seconds) taken from first intromission to ejaculation. A maximum time of 30 minutes (1800 seconds) was given, and the test terminated if ejaculation was not achieved in that time (Figure 14), and Refractory Period: time (in seconds) taken from ejaculation to the first mount of the next series of sexual activity. In those animals reaching ejaculation the test was terminated at the end of the refractory period, as indicated by the first mount of the next sexual cycle (Figure 15).
A one-way ANOVA followed by Dunnett's t test was used to compare treated vs vehicle groups each day of testing, for all the sexual behaviour parameters.

[4] = system: Sprague Dawley male rats; assay: Sexual behaviour of fluoxetine-induced sexually dysfunctional male rats; assay type: in vivo, rat; conditions: fluoxetine 20mg/kg i.p. 3 days (vs vehicle+vehicle)
Procedure: Sprague Dawley male rats (Charles River, UK) were kept, 4 rats per cage, in a reversed lighting regime (12:12 hours, lights off at 5.00 h), with free access to food and water. The rats were pre-selected by being presented with a receptive female at 4 days intervals, i.e. every third day (having 2 clear days between presentations) until completing 6-7 trials of baseline determination. The animals showing consistently vigorous behaviour (ejaculatory latencies <300s) were chosen for further experiments. Animals were treated for 3 consecutive days with either vehicle (water) or fluoxetine (20mg/kg, i.p., in a 2ml/kg dosing volume). […] All treatments were administered i.p. in a 1ml/kg volume, 1h before tests.
For all the sexual behaviour tests, the males were placed in an observation arena (50-60 cm diameter), starting 5 hours into the dark cycle and observed under red illumination. Three to 4 minutes after placing the male in the arena, a receptive female (ovariectomised, bearing a 7 mm Silastic implant of oestradiol benzoate) was introduced to the arena and the following parameters noted: Mount Latency: time (in seconds) taken between introduction of female and first mount. A maximum time of 15 minutes (900 seconds) was allowed, and the test terminated if no mounts were recorded within that time (Figure 16), Ejaculation Latency: time (in seconds) taken from first intromission to ejaculation. A maximum time of 30 minutes (1800 seconds) was given, and the test terminated if ejaculation was not achieved in that time (Figure 17), Percentage of males achieving ejaculation within 30 minutes was calculated (Figure 18).
A one-way ANOVA followed by Dunnett's t test was used to compare the fluoxetine+vehicle group and other groups for mount and ejaculatory latencies. Percentage of animals ejaculating was analysed using a Chi-square test followed by Fisher's test. (*: P<0.05, **: P<0.01, ***: P<0.001; n=15-19).

[5] = system: Ovariectomised adult female Sprague Dawley rats; assay: Female rat sexual proceptivity test (time investigating male vs female stimulus); assay type: in vivo; remark: listed apart in the source
Procedure: as §1
Tests were carried out in a circular arena of 90cm diameter, surrounded by a 30cm high wall. Two small cages with wire-mesh front (15x15cm) are fixed into the wall such that the front of the cage is «flush» with the wall and the 2 cages are opposite each other. They contained two stimuli animals: an intact sexually experienced male and a receptive female (ovariectomised, primed with 5µg oestradiol benzoate dissolved in corn oil and injected subcutaneously 48 hours before the test and with 0.5 mg of progesterone four hours before the test). Sexually naive test and control animals were used. Forty eight hours before the tests, both the test and control animals were primed with 5µg oestradiol benzoate. For animals used as positive controls, progesterone (0.5mg/0.1ml) was dissolved in corn oil and administered subcutaneously (s.c.), 4h before the test. Test and control animals were introduced one at a time for 10 minute periods into the arena. During the 10min test, the time that the test or positive control animal spent investigating each stimulus animal was noted. The arena was thoroughly cleaned between animals. The position of the male/female stimuli boxes was randomised between animals, in order to avoid place preference. The difference in the percentage of time spent investigating the male minus the female stimuli was calculated, out of the total time spent investigating stimuli animals. […]
Ovariectomised adult female Sprague Dawley rats (180-200g) were housed in groups of 5 in a reversed lighting system of 12h light:dark (lights off 5.00-17.00h). They were used for the experiments at least two weeks after ovariectomy. Forty eight hours before tests, the animals were primed with oestradiol benzoate (5µg/0.1ml in corn oil, s.c.). On day 1, progesterone (0.5mg/0.1ml, in corn oil, s.c.) was administered to one of the groups 4h before tests, as a positive control. […] The test lasted 10 minutes and was carried out as described before. The difference in the percentage of time spent investigating the male minus the female stimuli was calculated, out of the total time spent investigating stimuli animals. Animals were submitted to a test on day 1 and on day 15. […] On day 15 the test took place again, as described for day 1. […]

[6] = Example 31, after vs before administration, Compound (2) oral 10-100mg/kg in PEG200, 1h
[7] = day 4 Compound (1) 15mg/kg or yohimbine 2mg/kg i.p. 1h before tests (vs fluoxetine+vehicle)

Compound: COc1ccc(C2(CNC(=O)[C@](C)(Cc3c[nH]c4ccccc34)Nc3nc(-c4ccc([N+](=O)[O-])cc4)co3)CCCCC2)nc1 [Example 9, (S)-3-(1H-Indol-3-yl)-N-[1-(5-methoxy-pyridin-2-yl)-cyclohexylmethyl]-2-methyl-2-[4-(4-nitro-phenyl)-oxazol-2-ylamino]-propionamide]
- lordosis quotient (LQ) [1, 6]: increased the LQ
- minimal effective dose ([1]; Rattus norvegicus, Example 31, single oral administration in PEG200, 1h after administration, P<0.01, read-out: MED (increase in LQ)): 100 mg/kg
- MED (increase in percentage of time spent investigating the male stimulus) ([2]; Example 29, oral, 30-100mg/kg in PEG 200 vehicle, 1h before test): 100 mg/kg
- percentage of time spent investigating the male stimulus ([2]; Example 29, oral, dose-dependent 30-100mg/kg in PEG 200, 1h before test): increased the percentage of time spent investigating the male stimulus
- increase in potency compared to the oral results obtained in the PEG200 vehicle ([2]; Example 30, methyl cellulose MED vs PEG200 MED): 10 fold
- MED (increase in percentage of time spent investigating the male stimulus) ([2]; Example 30, p.o., 3-30mg/kg in 0.5% methyl cellulose, 1h before tests): 10 mg/kg
- percentage of time spent investigating the male stimulus ([2]; Example 30, p.o., dose-dependent 3-30mg/kg in 0.5% methyl cellulose): increased the percentage of time spent investigating the male stimulus

Compound: CNCCC(Oc1ccc(C(F)(F)F)cc1)c1ccccc1 (centres unmarked) [fluoxetine, reference compound]
- Ejaculation latency [3]: also increased
- Intromission latency [3]: significantly increased
- Mount latency [3]: significantly increased
- Refractory period [3]: also increased
- number of mounts and intromissions required to achieve ejaculation [3]: No changes
- Ejaculation latency [4, 7]: significantly increased
- Mount latency [4, 7]: significantly increased
- percentage of animals ejaculating ([4]; within 30 minutes, day 4 Compound (1) 15mg/kg or yohimbine 2mg/kg i.p. (vs fluoxetine+vehicle)): significantly lower

Compound: CC(=O)[C@H]1CC[C@H]2[C@@H]3CCC4=CC(=O)CC[C@]4(C)[C@H]3CC[C@]12C [progesterone, reference compound]
- proceptivity, day 1 ([5]; Example 3, Compound (1) 15mg/kg i.p. 1h before test, progesterone 0.5mg/0.1ml s.c. 4h before, vs vehicle, P<0.01): stimulatory effect on proceptivity
- percentage of time spent investigating the male stimulus ([5]; Example 5, progesterone 0.5mg/0.1ml s.c. 4h before test, compared to vehicle group): increased the percentage of time spent investigating the male stimulus

Compound: CCCN1CCC[C@@H]2Cc3nc(N)ncc3C[C@H]21 [quinelorane, reference compound]
- lordosis quotient (LQ) ([1]; Example 2, after vs before administration (paired t test), Compound (1) 10mg/kg i.p. 1h): significantly (P<0.01) increased the LQ
- lordosis quotient (LQ) [1, 6]: significantly (P<0.01) increased the LQ

Compound: neuromedin B [NMB, reference compound]
- proceptivity in progesterone-treated rats ([5]; Example 5, NMB 100ng i.c.v. 10min before tests, P<0.001 vs progesterone): significantly reduced proceptivity
